The values that follow come from patent publication US10273226B2, “Pyrazolyl-heteroarylamides as pesticides” (Bayer Animal Health GmbH, priority 2014, dated 2019).

What all share (format): in vivo
One experiment relates to Myzus persicae. Kind of experiment: Myzus persicae spray test. Conditions: application rate 100 g/ha; after 6 days. The method, boiled down:
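Chinese cabbage leaf discs infested with all stages of green peach aphid were sprayed with compound formulated in solvent and water containing 1000 ppm emulsifier. Percent kill was assessed after 6 days, where 100% means all aphids dead and 0% none dead.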

For the next experiment, the system named is Phaedon cochleariae. Description: Phaedon cochleariae spray test. The note with it: application rate 100 g/ha; larvae; after 7 days. Summed up: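 Chinese cabbage leaf discs were sprayed with the compound formulated in water containing 1000 ppm emulsifier. After drying, they were infested with mustard beetle larvae. Efficacy was scored as % larvae killed after 7 days (100% = all dead, 0% = none).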

In experiment [1] the test system is Ctenocephalides felis. Kind of experiment: Ctenocephalides felis oral test. The note with it: application rate 100 ppm in citrated cattle blood; after 2 days. Summed up:
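About 20 unfed adult cat fleas fed through a parafilm membrane on citrated cattle blood containing compound, dosed from a DMSO stock. Kill in % scored after 2 days; 100% means all fleas dead.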

Another experiment deals with Tetranychus urticae. Kind of experiment: Tetranychus urticae spray test, OP-resistant. The note with it: application rate 100 g/ha; after 6 days. Summed up:
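Bean leaf discs (Phaseolus vulgaris) carrying all stages of OP-resistant mites are sprayed with compound formulated in solvent and emulsifier-containing water. Efficacy (% mites killed) is scored after 6 days.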

A further experiment relates to Boophilus microplus. Kind of experiment: Boophilus microplus injection test. Conditions: application rate 20 μg/animal; injection into abdomen; assessed after 7 days. The method, boiled down:
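Engorged adult female Boophilus microplus ticks (5 per dose) each received a 1 μl abdominal injection of compound in DMSO and were held in a climate-controlled room. Efficacy was scored after 7 days from fertile egg laying, with unclear eggs kept until hatching (~42 days); 100% means no fertile eggs.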

Experiment [2] relates to Ctenocephalides felis. Description: Ctenocephalides felis in vitro contact test with adult cat fleas. Conditions: application rate 5 μg/cm^2 (500 g/ha); after 48 h; fleas dead or moribund. Summed up:
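Test tubes were coated with 250 μl acetone solution of compound, giving 5 μg/cm^2 at 900 ppm, then dried and stocked with 5-10 adult cat fleas. After 48 h at room temperature and ambient humidity, dead or moribund fleas were counted; efficacy given as % (100% = all dead or moribund).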

The next experiment relates to Musca domestica. Description: Musca domestica test. The note with it: application rate 100 ppm; adult houseflies; after 2 days. The method, boiled down:
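Compound in DMSO, diluted with water, applied to a sugar-solution sponge; vessels hold 10 adult houseflies. Percent mortality scored after 2 days.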

For another experiment, the system named is Spodoptera frugiperda. Kind of experiment: Spodoptera frugiperda spray test. The note with it: application rate 100 g/ha; caterpillars; after 7 days. The method, boiled down: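 Maize leaf discs were sprayed with compound formulated in solvent plus water containing 1000 ppm emulsifier, dried, then infested with Spodoptera frugiperda caterpillars. Efficacy in % mortality was scored after 7 days (100% all killed, 0% none).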

Experiment [3] has as its system Aedes aegypti strain MONHEIM. Description: Aedes test (AEDSAE surface treatment). The note with it: 24 hours after contact, read-out: efficacy (mortality in %). As to the method:
Aedes Test (AEDSAE Surface Treatment)
Solvent: acetone+2000 ppm rapeseed oil methyl ester (RME)
To produce an appropriate active ingredient formulation, the active ingredient is dissolved in the solvent (2 mg/ml). The active ingredient formulation is pipetted onto a glazed tile and, after it has dried off, adult mosquitoes of the species Aedes aegypti strain MONHEIM are placed onto the treated tile. The exposure time is 30 minutes.
24 hours after contact with the treated surface, mortality in % is determined. 100% means that all the mosquitoes have been killed; 0% means that none of the mosquitoes have been killed.

For experiment [4], the system named is Boophilus microplus Parkhurst strain, SP-resistant. Description: Boophilus microplus dip test. The note with it: application rate 100 ppm, assessed after 7 days. The method, boiled down:
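Adult engorged females of SP-resistant Parkhurst strain (8–10 per tube) fully immersed in compound diluted in water from a DMSO solution. Ticks then kept on filter discs in a climate-controlled room; efficacy scored from fertile egg laying at 7 days, with unclear eggs held about 42 days until hatch (100% = no fertile eggs).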

For the molecule `Cn1nc(C(F)(F)C(F)(F)F)c(C(F)(F)F)c1-n1cc(-c2cccc(NC(=O)c3ccncc3)c2)cn1` [Example 1-001, N-{3-[2′-Methyl-5′-(pentafluoroethyl)-4′-(trifluoromethyl)-2′H-1,3′-bipyrazol-4-yl]-phenyl}isonicotinamide], the efficacy in the experiment with Myzus persicae, with Phaedon cochleariae, in the experiment with Tetranychus urticae, with Ctenocephalides felis [2] and in the experiment with Spodoptera frugiperda was 100% in each case. For the same molecule, the “efficacy (kill in %)” value with Ctenocephalides felis [1] and in the experiment with Musca domestica was 100% throughout. In addition, the “efficacy (laying of fertile eggs)” value stood at 100% with Boophilus microplus and 95% in experiment [4]. In addition, the mortality at 20 mg/m2 in experiment [3] (application rate 20 mg/m^2, exposure 30 minutes) lay within 90 to 100%. Also, the mortality at 100 mg/m2 in [3] (application rate 100 mg/m^2, exposure 30 minutes) was 90 to 100%.

For orientation: mortality means the share of the test organisms that died.
